Laboratory results from patent US20260250318A1, “COMPOSITIONS AND METHODS FOR CROSSING THE BLOOD BRAIN BARRIER” (VOYAGER THERAPEUTICS, INC., priority 2022, published 2026).

system: brain; assay: Maturation of TTM-001 capsid, NGS enrichment in brain of CD-1 Outbred mice; assay type: in vivo; details: NGS fold-enrichment of TTM-001 matured AAV capsid variants in the brain of CD-1 Outbred mice; intravenous 1.0×10^12 VG/dose; 14 days in life; RNA; relative to non-matured TTM-001 control
In short: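 Brain enrichment read by NGS after RNA extraction and RT-PCR, expressed as fold ratio over the matching parental capsid (TTM-001 or TTM-002). Libraries, mutated around loop IV positions 449/450–466, were injected intravenously (tail vein, 1.0×10^12 VG/dose) into three female CD-1 mice; brains harvested at 14 days.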

Sequence	Fold enrichment over TTM-001 [fold]
KTINGSHSPHRKAQNQQT	2.028
KDLRGSGSPHSKAQNQQT	2.238
KTINGSGSPHSKCSNQQT	2.020
KTINGSGSPHSKAQASKT	2.546
KTINGSGSPHSRRSNQQT	2.851
KTINGSGSPHSKALRRQT	4.330
KTINGSGSPHSWLQNQQT	2.665
KTINGSGSPHSKWTLQQT	2.039
KTINGSGSPHSKAQRLRT	4.322
KTINGSGSPHSKLARQQT	3.054
KTINGSGSPHSKAQNVKL	2.024
KTINGMLSPHRKAQNQQT	2.646
KTINGSGSPHSKAQFWVT	2.050
KTINGSGSPHSKARLYQT	2.201
KTINGSGSPHWLAQNQQT	3.192
KTINGSGSPHSKAQRRQT	2.479
KTINGSGSPHSKTRAQQT	2.223
KTINGSGSPHSKARSRQT	2.972
KRLFGSGSPHSKAQNQQT	2.330
KTINGSGSPHSKASKQQT	2.069
KTINGSGSPHSKPARQQT	2.538
KTINGSWSPHLVAQNQQT (peptide inserted in AAV capsid)	2.084
KTINGTLSPHRKAQNQQT	2.307

Sequence	Fold enrichment over TTM-001 [fold]
KTINGSGSPHSVLFNQQT	2.194
KTINGSVSPHLYAQNQQT (peptide inserted in AAV capsid)	2.028
KGINGSGSPHGKAQNQQT	2.084
KTINGSGSPHSKKMSQQT	2.235
KTINGSGSPHSVYRNQQT	2.432
KTINGSGSPHTKWQNQQT	2.222
KGLSGSGSPHSKAQNQQT	4.056
KTINGSGSPHSKAQLTLT	2.641
KTINGRQSPHVKAQNQQT	2.557
KTINGSGSPHSKLCLQQT	2.562
KTINGSGSPHSKAQTGRT	2.371
KTINGSGSPHSKRNLQQT	3.210
KTINGSGSPHYLVQNQQT	3.819
KTINGSGSPHSKAVWRQT	2.026
KTINGSGSPHSKAQANRT	2.255
KTINGSGSPHSKPRPQQT	2.352
KSMNGSGSPHSRAQNQQT	5.145
KTINGSGSPHSKRTPQQT	3.169
KTINGSGSPHSKAQNAKL	2.486
KTINGSGSPHSKPRLQQT	3.337
KTINGSGSPHSKAQTSRT	3.421
KTINGSGSPHSKARIVQT	3.287
KTINGRSSPHGKAQNQQT	3.035

Sequence	Fold enrichment over TTM-001 [fold]
KTINGSGSPHSKAWLMQT	2.015
KTINGVLSPHWKAQNQQT	2.199
KTINGSMSPHRRAQNQQT	2.028
KTINGSGSPHSKRSWQQT	3.838
KTINGSGSPHSKTRMQQT	2.011
KTINGSGSPHSKARGIQT	2.140
KTINGSGSPHSCLQNQQT	3.559
KTINGSTSPHWSAQNQQT (peptide inserted in AAV capsid)	2.043
KTINGSGSPHSKAQLKLT	2.125
KTINGSGSPHSKLCVQQT	2.659
KTINGSVSPHRRAQNQQT (peptide inserted in AAV capsid)	2.186
KTINGSWSPHMLAQNQQT (peptide inserted in AAV capsid)	2.106
KTINGQRSPHSKAQNQQT	2.590
KTINGSGSPHLNWQNQQT	3.112
KTINGSGSPHEHNQNQQT	2.199
KTINGSRSPHARAQNQQT (peptide inserted in AAV capsid)	2.745
KTINGFRSPHSKAQNQQT	2.333
KTINGSGSPHSKAHRSQT	2.819
KTINGSGSPHLYMQNQQT	2.615
KTINGSGSPHSKARPFQT	2.443
KEIKGSGSPHSKAQNQQT	2.140
KTINGSLSPHRRAQNQQT	2.717
KTINGSGSPHSKAQHLRT	2.741

Sequence	Fold enrichment over TTM-001 [fold]
KTINGSGSPHSKWSLQQT	2.453
KTINGSGSPHSKAWLIQT	2.499
KTINGSGSPHSKRLLQQT	2.659
KTINGSGSPHSKASKRQT	4.117
KTINGSRSPHSWAQNQQT (peptide inserted in AAV capsid)	2.559
KTINGSCSPHLRAQNQQT	2.423
KTINGSGSPHSTWLNQQT	3.583
KTINGSGSPHELPQNQQT (KTINGSGSPHFLPQNQQT)	2.123
KTINGSGSPHVLFQNQQT	2.203
KTINGSGSPHSKLWTQQT	2.140
KTINGSGSPHSKRNGQQT	3.350
KTINGSGSPHSYSRNQQT	2.196
KTINGSGSPHSFLRNQQT	3.384
KTINGSKSPHRLAQNQQT	3.073
KTINGSGSPHSKLCSQQT	2.989
KTINGSGSPHSMFPNQQT	2.419
KTINGRQSPHTKAQNQQT	2.294
KTINGSGSPHSKQSRQQT	2.156
KTINGSGSPHSKSARQQT	2.067
KTINGSGSPHSMYLNQQT	2.000
KTINGRISPHGKAQNQQT	2.492
KTINGSGSPHSLSWNQQT	2.588
KTINGRISPHLKAQNQQT	2.028

Sequence	Fold enrichment over TTM-001 [fold]
KTINGSGSPHSKAFRPQT	2.499
KTINGSGSPHSKAQSLKT	2.110
KTINGSGSPHSKRMSQQT	2.931
KTINGSGSPHSLCQNQQT	2.285
KTINGSGSPHSALWNQQT	2.261
KTINGSGSPHGWAQNQQT	2.121
KTINGSGSPHSKARTRQT	2.737
KTINGSGSPHCVAQNQQT	2.080
KTINGPLSPHCKAQNQQT	2.194
KTINGSGSPHPYAQNQQT	2.598
KTINGSGSPHRRSQNQQT	2.497
KTINGSGSPHSKARYVQT	2.749
KTINGSGSPHGLWQNQQT	2.181
KTINGSGSPHSKAQNRIR	2.039
KTINGTRSPHTKAQNQQT	2.203
KTINGSGSPHSKAQHSRT	3.227
KTINGSGSPHSKFSCQQT	2.348
KTINGSGSPHLRFQNQQT	2.186
KTINGSGSPHSKAQLTVT	4.026
KTINGVPSPHWKAQNQQT	2.758
KTINGSGSPHSWTQNQQT	2.084
KPLPGSGSPHSKAQNQQT	2.495
KTINGSTSPHYLAQNQQT (peptide inserted in AAV capsid)	2.665

Sequence	Fold enrichment over TTM-001 [fold]
KTINGLLSPHWKAQNQQT	4.173
KTINGSGSPHSKARKLQT	2.458
KTINGSGSPHSKANKSQT	2.056
KTINGSGSPHSKAGCGQT	5.341
KTINGSGSPHSRTYNQQT	2.009
KTINGSGSPHSKAQMKCT	2.039
KTINMLRSPHSKAQNQQT	2.000
KTINGSGSPHSKARSYQT	2.382
KTINGSGSPHSKAQSSRT	2.575
KTINGSGSPHLLFQNQQT	2.069
KTINGSGSPHRFRQNQQT	3.698
KTINGSGSPHLCLQNQQT	3.425
KTINGSGSPHSKAWYPQT	2.406
KTINGSGSPHSKAQCLFT	2.421
KTINGSGSPHSKWPGQQT	2.477
KTRRSSGSPHSKAQNQQT	2.438
KTINGSGSPHRWAQNQQT	2.350
KTINGSGSPHSKAQKRST	2.151
KTINGSGSPHSKAQRRLT	4.227
KTINGSGSPHSKTRLQQT	2.145
KTINGSGSPHWSLQNQQT	2.389
